Assay results from article PMC8218542, “Iodine-catalyzed electrophilic substitution of indoles: Synthesis of (un)symmetrical diindolylmethanes with a quaternary carbon center” (Beilstein Journal of Organic Chemistry, 2021).
“Also recorded” adds a separate entry of the source. Read-outs that look alike come from different tables or passages of the source.

Tests used:
Human CB1 receptor [1] = molecular target: T1, Human CB1 receptor (Homo sapiens, UniProt P21554); test: Radioligand binding assay vs [3H]CP55,940, membranes of CHO cells expressing human CB1; details: CHO cell membranes
Experimental: (§1) Radioligand b inding assays at CB1 and CB 2 receptors
(§2) Competition binding assays were performed using the CB receptor agonist radioligand [3H](−)- cis-3-[2-hydroxy-4-(1,1-dimethylheptyl)phenyl]-trans-4-(3-hydroxypropyl)-cyclohexanol as previously described [S1]. Briefly, membrane preparations of Chinese hamster ovary (CHO) cells stably expressing human CB1 or CB2 receptor were used (30 μg of protein/well for CB1 and 16 µg of protein/well for CB2-receptor preparations). All stock solutions of test compounds ([…]) were prepared in DMSO. After 2 h of incubation, a mixture containing 15 μL of the […]
(§3) mM MgCl2, 0.1% BSA, pH 7.4), 60 μL of membrane preparation (in 50 mM TRIS buffer) and 465 μL of assay buffer, were filtered through GF/C glass fiber filters (presoaked for 0.5 h in 0.3% aq. polyethyleneimine solution), using a Brandel 96-channel cell harvester (Brandel, Gaithersburg, MD). Radioactivity on the filters was then measured in a liquid scintillation counter (Topcount NXT, Packard/Perkin-Elmer) after 10 h of preincubation with 50 µl of scintillation cocktail (Multiscint 25, Perkin-Elmer). […]

Human CB2 receptor [2] = molecular target: T2, Human CB2 receptor (Homo sapiens, UniProt P34972); test: Radioligand binding assay vs [3H]CP55,940, membranes of CHO cells expressing human CB2; design: expressed in transfected cells; membrane preparations; details: CHO cell membranes
Experimental: as §1, §2, §3

control HEK293 cells = test: Trupath BRET2 assay in control HEK293 cells transfected with only Gαi1-Rluc8, ß3 and γ9-GFP2; assay type: cell-based; details: cells without CB receptor
Human CB1 receptor [3] = molecular target: T1, Human CB1 receptor; test: Trupath BRET2 functional assay in HEK293 cells transfected with human CB1; assay type: cell-based; design: expressed in transfected cells; host or cells: HEK293 cells, transient transfection (Lipofectamine 2000); receptor in pcDNA3.1(+); Trupath plasmids Addgene kit #1000000163; details: for agonistic activity at human CB1: agonist mode, BRET2; for IC50: read-out: IC50, blockade of CB1 receptor activation
Experimental: (§4) Functional assays at CB1 and CB2 receptors
(§5) Functional assays of the selected compounds were assessed using the Trupath BRET 2 assay system as recently described [S2]. The Trupath plasmids were a gift from Bryan Roth’s Laboratory (Addgene kit #1000000163). Briefly, HEK293 cells were seeded in a 6 well-plate at adensity of 700.000 cells/well and incubated for 4h. Plasmids containing Gαi1-Rluc8, ß3 and γ9-GFP2 and either human CB 1 or CB2 in pcDNA3.1(+) at a ratio of 1:1:1:1 were mixed with Lipofectamine 2000 and transfected according to the manufacturer’s protocol. The cells were further incubated overnight, then harvested and seeded at a density of 40.000 cells/well in 96 well-plates with full growth medium, and cultured for another 24h. On the day of the […]
(§6) culture medium was carefully discarded and replaced by 60 µL of HBSS-HEPES buffer, followed by the addition of 10 µL of 50 µM Coelenterazine 400a. For testing of agonistic activity, the test compounds were added to the wells in a volume of 30 µL and incubated for 5 min. For antagonist testing, compounds were added in a volume of 15 µL, incubated for 5 min, […]
(§7) incubated for another 5 min. Test compounds were dissolved in DMSO and the final DMSO concentration in the assays was 1%. Finally, the signal was measured using a Mitras LB400 according to previously published literature[S3]. Data were obtained from 3-4independent experiments performed in duplicate.

Human CB2 receptor [4] = molecular target: T2, Human CB2 receptor; test: Trupath BRET2 functional assay in HEK293 cells transfected with human CB2; assay type: cell-based; design: expressed in transfected cells; host or cells: HEK293 cells, transient transfection (Lipofectamine 2000); receptor in pcDNA3.1(+); Trupath plasmids Addgene kit #1000000163; details: for agonistic activity at human CB2: agonist mode, BRET2
Experimental: as §4, §5, §6, §7

Human CB1 receptor [5] = molecular target: T1, Human CB1 receptor; design: method as in PMID 7565624; details: previously reported; cited from earlier work
CB1 receptors = system: CB1 receptors; design: method as in PMID 19286662; details: previously shown; cited from earlier work
Human CB2 receptor [6] = molecular target: T2, Human CB2 receptor; design: expressed in transfected cells; membrane preparations; method as in PMID 7565624; details: previously reported; cited from earlier work

T2 sequence (P34972 whole entry): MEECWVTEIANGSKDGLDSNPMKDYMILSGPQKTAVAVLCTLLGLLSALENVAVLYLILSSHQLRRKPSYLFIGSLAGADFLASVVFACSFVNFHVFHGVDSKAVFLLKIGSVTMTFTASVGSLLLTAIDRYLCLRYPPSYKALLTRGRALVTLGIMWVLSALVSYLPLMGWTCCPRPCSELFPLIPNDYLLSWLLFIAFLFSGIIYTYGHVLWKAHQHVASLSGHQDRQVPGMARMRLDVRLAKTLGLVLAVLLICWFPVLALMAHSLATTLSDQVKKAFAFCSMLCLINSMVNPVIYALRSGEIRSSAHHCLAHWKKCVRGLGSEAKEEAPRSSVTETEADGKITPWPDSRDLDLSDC
T1 sequence (P21554 whole entry): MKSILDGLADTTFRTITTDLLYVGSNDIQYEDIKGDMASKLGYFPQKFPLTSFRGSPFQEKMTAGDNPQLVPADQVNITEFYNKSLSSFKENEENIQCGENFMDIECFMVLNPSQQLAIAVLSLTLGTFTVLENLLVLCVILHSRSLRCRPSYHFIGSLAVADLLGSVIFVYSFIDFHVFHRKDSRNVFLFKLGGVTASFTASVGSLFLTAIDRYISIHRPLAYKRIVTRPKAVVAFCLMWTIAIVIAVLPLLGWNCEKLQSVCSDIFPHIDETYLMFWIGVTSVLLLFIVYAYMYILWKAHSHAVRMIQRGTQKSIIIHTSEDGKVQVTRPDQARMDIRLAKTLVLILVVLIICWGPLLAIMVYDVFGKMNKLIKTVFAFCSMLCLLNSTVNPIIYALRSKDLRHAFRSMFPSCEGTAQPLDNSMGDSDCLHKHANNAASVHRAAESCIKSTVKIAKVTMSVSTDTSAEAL

| Structure (SMILES) | Ki (Human CB1 receptor [1]) | Ki (Human CB2 receptor [2]) | also measured |
| --- | --- | --- | --- |
| COc1ccc2[nH]cc(C(c3ccccc3)(c3c[nH]c4ccccc34)C(F)(F)F)c2c1 (stereo not shown) [3a, 5-methoxy-3-(2,2,2-trifluoro-1-(1H-indol-3-yl)-1-phenylethyl)-1H-indole] | 4.23 ± 0.03 µM | 6.04 ± 0.11 µM | – |
| COc1ccc2[nH]cc(C(c3ccccc3)(c3c[nH]c4ccccc34)C(F)(F)C(F)(F)F)c2c1 (stereo not shown) [3ad] | 1.82 ± 0.09 µM | 11.2 ± 0.5 µM | effect in non-transfected control cells (control HEK293 cells): did not show any effect; inverse agonistic activity (effect on basal activity) at CB1 (Human CB1 receptor [3]; BRET2, HEK293): less pronounced; also recorded: inverse agonistic activity; agonistic activity at human CB1 (Human CB1 receptor [3]): no agonistic activity; IC50 (Human CB1 receptor [3]): 5.22 ± 0.68 µM; agonistic activity at human CB2 (Human CB2 receptor [4]): no agonistic activity |
| COc1ccc2[nH]cc(C(c3ccccc3)(c3c[nH]c4cccc(OC)c34)C(F)(F)F)c2c1 (stereo not shown) [3b] | 7.64 ± 0.8 µM | 4.75 ± 0.34 µM | – |
| COc1ccc2[nH]cc(C(c3ccccc3)(c3c[nH]c4cc(F)ccc34)C(F)(F)F)c2c1 (stereo not shown) [3e] | 3.21 ± 0.25 µM | 4.47 ± 0.12 µM | inverse agonistic activity (effect on basal activity) at CB1 (Human CB1 receptor [3]; BRET2, HEK293): reduced the basal activity; also recorded: inverse agonistic activity; agonistic activity at human CB1 (Human CB1 receptor [3]): no agonistic activity; IC50 (Human CB1 receptor [3]): 5.68 ± 0.54 µM; EC50 (Human CB1 receptor [3]; reduction of basal activity, BRET2, HEK293, read-out: EC50, inverse agonist at CB1 receptors): 0.786 ± 0.233 µM; agonistic activity at human CB2 (Human CB2 receptor [4]): no agonistic activity; inhibition of CB2 receptor activation (Human CB2 receptor [4]; antagonist mode, CP55,940 at its EC80, compared with CB1): weaker |
| COc1ccc2[nH]cc(C(c3ccccc3)(c3c[nH]c4c(Br)cccc34)C(F)(F)F)c2c1 (stereo not shown) [3g] | 4.02 ± 0.22 µM | 4.62 ± 0.33 µM | – |
| COc1ccc2[nH]cc(C(c3ccccc3)(c3c[nH]c4cc(F)c(F)cc34)C(F)(F)F)c2c1 (stereo not shown) [3h] | 4.78 ± 1.26 µM | 9.9 ± 1.45 µM | – |
| Fc1cc2[nH]cc(C(c3ccccc3)(c3c[nH]c4ccccc34)C(F)(F)F)c2cc1F (stereo not shown) [3n] | 2.04 ± 0.08 µM | 6.14 ± 0.13 µM | – |
| c1ccc2c(Cc3c[nH]c4ccccc34)c[nH]c2c1 [I, diindolylmethane] | – | – | Ki (Human CB1 receptor [5]): 4.3 µM; functional activity at CB1 receptors (CB1 receptors): weak inverse agonist; Ki (Human CB2 receptor [6]): 1.1 µM |
